Laboratory results: PubChem BioAssay (NCI)
Where “and” joins values, the source holds several entries; their conditions need not be identical. Identical values can stand only once.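 Five compound concentrations were applied to cells in 96-well plates for 48 hours; endpoints were derived by simple linear interpolation of the resulting dose-response curve. Here, GI50 denotes the concentration required for 50% inhibition of growth. The concentration for full growth arrest is given as TGI.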

Key:
Test in all cases: NCI tumour cell line growth inhibition, 48 h
[1] = tested on: OVCAR-3 ovarian
[2] = tested on: MDA-N
[3] = tested on: U251 CNS
[4] = tested on: SN12C renal
[5] = tested on: UO-31 renal
[6] = tested on: SF-539 CNS
[7] = tested on: CAKI-1 renal
[8] = tested on: HOP-92 NSCLC
[9] = tested on: HCT-116 colon
[10] = tested on: OVCAR-5 ovarian

| SMILES | TGI [1] | TGI [2] | TGI [3] [µM] | TGI [4] | TGI [5] | TGI [6] | TGI [7] [µM] | TGI [8] | TGI [9] [µM] | TGI [10] [µM] | GI50 [1] | GI50 [2] | GI50 [4] | GI50 [5] | GI50 [6] | GI50 [9] | GI50 [10] |
| --- | --- | --- | --- | --- | --- | --- | --- | --- | --- | --- | --- | --- | --- | --- | --- | --- | --- |
| C[C@@H]1CC(=O)C[C@@H]2CC[C@H]3[C@@H]4CC[C@H](OC(=O)c5cccc6cc7ccccc7nc56)[C@H]4CC[C@@H]3[C@H]21 | 29.8 µM | 26.3 µM | 19.8 | 33.1 µM | 31 µM | 38.6 µM | 33.7 | 48.1 µM | 27.1 | 34.9 |  |  |  |  |  |  |  |
| Cc1ccc2nc(-c3ccc(C(C)(C)C)cc3)oc(=O)c2c1 | 60.9 µM | 67.5 µM | 32.5 | > 100 µM | 70 µM | 40.6 µM | 39.6 | 63.2 µM | 51.9 | 89.5 |  |  |  |  |  |  |  |
| COC1C(N(C)C)=C(c2ccccc2)C(=O)N2CCc3ccccc3C12 (stereo unspecified) |  | > 100 µM | > 100 | > 100 µM | > 100 µM | > 100 µM | > 100 | > 100 µM | > 100 | > 100 |  |  |  |  |  |  |  |
| C(=Nc1ccc(-c2nc3ccccc3s2)cc1)c1ccc[nH]1 | 39.5 µM | 33.6 µM | 27.7 | 44.8 µM | 53.5 µM | 37.3 µM | 78.3 | 40.1 µM | 29.9 | 51.4 |  |  |  |  |  |  |  |
| CNc1ncnc2c1nc(NC1CCCC1)n2C1OC(CO)C(O)C1O (stereo unspecified) | > 100 µM | > 100 µM | > 100 | > 100 µM | > 100 µM | > 100 µM | > 100 | > 100 µM | > 100 | > 100 |  |  |  |  |  |  |  |
| COC(=O)Nc1nc2ccc(S(=O)(=O)N3CCOCC3)cc2[nH]1 | > 100 µM | > 100 µM | > 100 | > 100 µM | > 100 µM | 31 µM | > 100 | > 100 µM | > 100 | > 100 |  |  |  |  |  |  |  |
| C/C(=N\Nc1nc2ccccc2s1)c1cc2ccccc2cn1 | 6.96 µM | > 100 µM | > 100 | 30.8 µM | 14.8 µM | 25.6 µM | 17.6 | 93.6 µM | 10.6 | 54.5 |  |  |  |  |  |  |  |
| CC1(C)OC2OC(C(COS(=O)(=O)C(F)(F)F)N=[N+]=[N-])C(OC(=O)c3ccccc3)C2O1 (stereo unspecified) | > 100 µM | > 100 µM | > 100 | > 100 µM | > 100 µM | > 100 µM | > 100 | > 100 µM | > 100 | > 100 |  |  |  |  |  |  |  |
| Cn1c(=O)c2c(nc3sc4ccccc4c(=O)n32)n(C)c1=O | > 100 µM | > 100 µM | > 100 | > 100 µM | > 100 µM | > 100 µM | > 100 | > 100 µM | > 100 | > 100 |  |  |  |  |  |  |  |
| CC1=CP(=O)(c2c(C(C)C)cc(C(C)C)cc2C(C)C)CCC1Cl (stereo unspecified) | 23.4 µM | 46.7 µM | 32.3 | 34.7 µM | 29.2 µM | 32.9 µM | 39.4 | 31 µM | 38.4 | 32.5 |  |  |  |  |  |  |  |
| Cc1ccc2c(c1)nc1n2C(N)=Nc2ccccc2S1 | > 100 µM | > 100 µM | > 100 | > 100 µM | > 100 µM | > 100 µM | > 100 | > 100 µM | > 100 | > 100 |  |  |  |  |  |  |  |
| CC(C)=CC[C@]12CCN(C)[C@H]1N(S(=O)(=O)c1ccccc1)c1ccccc12 | > 74.4 µM | > 100 µM | > 58.2 | > 100 µM | > 100 µM | > 100 µM | > 100 | > 79.9 µM | > 100 | > 100 |  |  |  |  |  |  |  |
| CC1(C)COC2=C(C1)C(=O)c1ccccc1C2=O | 2.06 µM | 0.325 µM | 2.78 | 2.76 µM | 2.21 µM | 2.9 µM | 3.9 | 3.85 µM | 1.7 | 3.15 |  |  |  |  |  |  |  |
| COC(=O)C1(SC)C2CCC3C2CCC31 (stereo unspecified) | > 100 µM | > 100 µM | > 100 | > 100 µM | > 100 µM | > 100 µM | > 100 | > 100 µM | > 100 | > 100 |  |  |  |  |  |  |  |
| COc1nc2ccc(COc3ccc(C(=O)O)cc3)cc2nc1OC | > 100 µM | > 100 µM | > 100 | > 100 µM | > 100 µM | > 100 µM | > 100 | > 100 µM | > 100 | > 100 |  |  |  |  |  |  |  |
| CC(=O)OCC1OC(n2c(S)c(C#N)c(-c3ccccc3)c(C#N)c2=O)C(OC(C)=O)C(OC(C)=O)C1OC(C)=O (stereo unspecified) | > 100 µM and 36.9 µM | > 100 µM and 86.5 µM | > 100 | > 100 µM and 81.7 µM | > 100 µM and 87.3 µM | > 100 µM and 70.9 µM | > 100 | 59.9 µM and 99.2 µM | > 100 | > 100 | > 100 µM and 19.5 µM | > 100 µM and 28.3 µM | > 100 µM and 25.2 µM | > 68.1 µM and 29.1 µM | 51.6 µM and 25.7 µM | > 100 µM and 39.3 µM | > 100 µM and 39.7 µM |
| O=C(O)[C@H](CCC[C@H]1C(=O)O[C@H](c2ccccc2)[C@H](c2ccccc2)N1C(=O)OCc1ccccc1)N[C@@H](c1ccccc1)[C@H](O)c1ccccc1 | 48.4 µM | 53.1 µM | 31.1 | 42.1 µM | > 100 µM | 34.4 µM | > 100 | 49.5 µM | 44.9 | > 100 |  |  |  |  |  |  |  |
| CN(CCNC(=O)c1c[nH]c2c1Cc1ccccc1-2)CCNC(=O)c1c[nH]c2c1Cc1ccccc1-2 | 73.7 µM | 33.9 µM | 34.7 | > 100 µM | > 100 µM | 49.2 µM | > 100 | > 100 µM | > 100 | > 100 |  |  |  |  |  |  |  |
| COC1(CC[C@@H](C)COC2OC(CO)C(O)C(O)C2O)O[C@H]2C[C@H]3[C@@H]4CC=C5C[C@@H](OC6OC(CO)C(O)C(OC7OC(CO)C(O)C(O)C7O)C6OC6OC(C)C(O)C(O)C6O)CC[C@]5(C)[C@H]4CC[C@]3(C)[C@H]2[C@@H]1C (stereo partly specified) | 32.2 µM | 23.1 µM | 4.13 | > 56 µM | 9.53 µM | 7.11 µM | 12 | 12.3 µM | 34.9 | > 39.4 |  |  |  |  |  |  |  |
| CC(=O)OCC1OC(n2c(Br)nc3c2c(=O)n(C)c(=O)n3C)C(OC(C)=O)C1OC(C)=O (stereo unspecified) | > 100 µM | > 100 µM | > 100 | > 100 µM | > 100 µM | > 100 µM | > 100 | > 100 µM | > 100 | > 100 |  |  |  |  |  |  |  |
